This is an account of results in BindingDB's records for PubMed 8035312 (University of California, 1994).

Where “and” joins values, the source holds several entries; their conditions need not be identical. Equal entries are not always repeated.

For the assay, the target named is Nicotinic acetylcholine receptor (Rattus leucopus, UniProt Q62594).
Nicotinic acetylcholine receptor, sequence (Q62594 whole entry): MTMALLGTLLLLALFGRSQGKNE
As for `C=C(C=O)C[C@H]1C[C@H](O)[C@]2(C)O[C@@H]3C[C@@H]4O[C@@H]5C[C@]6(C)O[C@]7(C)CC[C@@H]8O[C@@H]9C[C@]%10(C)O[C@@H]%11C(C)=CC(=O)O[C@H]%11C[C@H]%10O[C@H]9C[C@@H](C)[C@H]8O[C@H]7C[C@H]6O[C@@]5(C)C/C=C\[C@H]4O[C@H]3C[C@H]2O1`, the Ki – broadly, a measure of affinity in units of concentration, obtained from inhibition or displacement – was > 10000 nM and 1000 nM.

In turn, `CNC(=O)OCC[N+](C)(C)C` [CAS_14721-69-8] yielded a Ki of 5.2 nM.

`C[N+](C)(C)CCCCCC[N+](C)(C)C` [Hexamethoniumdibromide] displayed a Ki of more than 10000 nM.

Regarding `CN1[C@@H](C[C@@H](O)c2ccccc2)CCC[C@H]1CC(=O)c1ccccc1` [Lobeline], the Ki came out at 15.5 nM.

As to `O=C1N(Cc2ccccc2)C2C[S+]3CCCC3C2N1Cc1ccccc1` (stereo unspecified) [NSC_441310], the Ki is more than 10000 nM.

Regarding `COc1cc2c3cc1Oc1cc(ccc1O)C[C@@H]1c4c(cc(OC)c(O)c4Oc4ccc(cc4)C[C@@H]3N(C)CC2)CC[N+]1(C)C` [Tubocurarine,d], the Ki was 1000 nM and 282 nM.
